# Results taken from patent US12473304B2, “Heterocyclic PAD4 inhibitors” (BRISTOL-MYERS SQUIBB COMPANY, priority 2020, dated 2025).
# Molecular target: human PAD4 (hPAD4) (Homo sapiens (Human), UniProt Q9UM07)
# Assay: RFMS Human PAD4 Functional Assay 1
# Format: biochemical
# Details: RFMS assay 1; 5 nM hPAD4, 250 μM BAEE substrate, 50 μM calcium, 37° C.
# Procedure, shortened: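 Recombinant hPAD4 (5 nM) was preincubated with compound (top 50 μM, 0.5% DMSO) for 30 min at 37 °C, then reacted with 250 μM BAEE for 90 min at 37 °C in pH 7.5 HEPES buffer with 50 μM calcium and 5 μM TPEN. Product was derivatized with phenyl glyoxal and quantified by RapidFire MS.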
# human PAD4 (hPAD4), sequence (Q9UM07 whole entry): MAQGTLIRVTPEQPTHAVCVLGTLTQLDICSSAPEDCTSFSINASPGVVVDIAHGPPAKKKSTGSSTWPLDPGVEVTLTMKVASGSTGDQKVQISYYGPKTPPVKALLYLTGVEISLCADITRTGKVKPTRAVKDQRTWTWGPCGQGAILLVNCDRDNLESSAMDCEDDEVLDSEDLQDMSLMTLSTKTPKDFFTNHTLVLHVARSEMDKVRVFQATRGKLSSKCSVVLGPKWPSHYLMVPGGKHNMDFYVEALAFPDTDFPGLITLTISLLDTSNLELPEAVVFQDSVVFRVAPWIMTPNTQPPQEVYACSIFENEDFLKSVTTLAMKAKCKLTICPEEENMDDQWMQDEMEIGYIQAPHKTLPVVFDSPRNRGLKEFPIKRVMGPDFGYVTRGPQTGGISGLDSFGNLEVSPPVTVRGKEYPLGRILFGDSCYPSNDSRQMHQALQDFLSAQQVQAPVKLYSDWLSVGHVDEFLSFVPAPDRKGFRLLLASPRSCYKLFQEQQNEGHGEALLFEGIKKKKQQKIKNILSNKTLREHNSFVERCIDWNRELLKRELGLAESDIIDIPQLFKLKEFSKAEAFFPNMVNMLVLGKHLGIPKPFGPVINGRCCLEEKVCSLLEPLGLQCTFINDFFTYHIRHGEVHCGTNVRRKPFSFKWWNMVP
row,SMILES,IC50 [nM]
1,"Cc1c(-c2cc3ccc(C4CC4)cc3n2CC2CC2)oc2cc(C(=O)N3CC4CCC3[C@@H]4N)ccc12 (stereo partly drawn) [Example 187, ((7R)-7-Amino-2-azabicyclo[2.2.1]heptan-2-yl)(2-(6-cyclopropyl-1-(cyclopropylmethyl)-1H-indol-2-yl)-3-methylbenzofuran-6-yl)methanone]",1550
2,"Cc1cc(-c2ccc3cc(-c4oc5cc(C(=O)N6CC7CCC6[C@@H]7N)ccc5c4C)n(CC4CC4)c3c2)cnc1C(N)=O (stereo partly drawn) [Example 188, 5-(2-(6-((7R)-7-Amino-2-azabicyclo[2.2.1]heptane-2-carbonyl)-3-methylbenzofuran-2-yl)-1-(cyclopropylmethyl)-1H-indol-6-yl)-3-methylpicolinamide]",81
3,"COC1CCN(c2ccc3cc(-c4oc5cc(C(=O)N6CC7CCC6[C@@H]7N)ccc5c4C)n(CC4CC4)c3c2)CC1 (stereo partly drawn) [Example 189, ((7R)-7-Amino-2-azabicyclo[2.2.1]heptan-2-yl)(2-(1-(cyclopropylmethyl)-6-(4-methoxypiperidin-1-yl)-1H-indol-2-yl)-3-methylbenzofuran-6-yl)methanone]",30
4,"COC1CN(c2ccc3cc(-c4oc5cc(C(=O)N6CC7CCC6[C@@H]7N)ccc5c4C)n(CC4CC4)c3c2)C1 (stereo partly drawn) [Example 190, ((7R)-7-Amino-2-azabicyclo[2.2.1]heptan-2-yl)(2-(1-(cyclopropylmethyl)-6-(3-methoxyazetidin-1-yl)-1H-indol-2-yl)-3-methylbenzofuran-6-yl)methanone]",58
5,"Cc1c(-c2cc3ccc(N4CCC(N)CC4)cc3n2CC2CC2)oc2cc(C(=O)N3CC4CCC3[C@@H]4N)ccc12 (stereo partly drawn) [Example 191, ((7R)-7-Amino-2-azabicyclo[2.2.1]heptan-2-yl)(2-(6-(4-aminopiperidin-1-yl)-1-(cyclopropylmethyl)-1H-indol-2-yl)-3-methylbenzofuran-6-yl)methanone]",20
6,"Cc1c(-c2cc3ccc(N4CCNCC4)cc3n2CC2CC2)oc2cc(C(=O)N3CC4CCC3[C@@H]4N)ccc12 (stereo partly drawn) [Example 192, ((7R)-7-Amino-2-azabicyclo[2.2.1]heptan-2-yl)(2-(1-(cyclopropylmethyl)-6-(piperazin-1-yl)-1H-indol-2-yl)-3-methylbenzofuran-6-yl)methanone]",93
7,"Cc1c(-c2cc3ccc(N4CCNCC4=O)cc3n2CC2CC2)oc2cc(C(=O)N3CC4CCC3[C@@H]4N)ccc12 (stereo partly drawn) [Example 193, 1-(2-(6-((7R)-7-Amino-2-azabicyclo[2.2.1]heptane-2-carbonyl)-3-methylbenzofuran-2-yl)-1-(cyclopropylmethyl)-1H-indol-6-yl)piperazin-2-one]",334
8,"Cc1c(-c2cc3ccccc3n2CC2CC2)oc2cc(C(=O)N3C[C@H](N)C[C@@H](F)C3)ccc12 [Example 194, ((3R,5R)-3-Amino-5-fluoropiperidin-1-yl)(2-(1-(cyclopropylmethyl)-1H-indol-2-yl)-3-methylbenzofuran-6-yl)methanone]",1800
9,"Cc1c(-c2cc3ccc(-c4ccc5c(c4)CNC5=O)cc3n2CC2CC2)oc2cc(C(=O)N3C[C@H](N)C[C@@H](F)C3)ccc12 [Example 195, 5-(2-(6-((3R,5R)-3-Amino-5-fluoropiperidine-1-carbonyl)-3-methylbenzofuran-2-yl)-1-(cyclopropylmethyl)-1H-indol-6-yl)isoindolin-1-one]",363
10,"Cc1c(-c2cc3ccc(-c4ccc(C(N)=O)c(F)c4)cc3n2CC2CC2)oc2cc(C(=O)N3C[C@H](N)C[C@@H](F)C3)ccc12 [Example 196, 4-(2-(6-((3R,5R)-3-Amino-5-fluoropiperidine-1-carbonyl)-3-methylbenzofuran-2-yl)-1-(cyclopropylmethyl)-1H-indol-6-yl)-2-fluorobenzamide]",384
11,"Cc1c(-c2cc3ccc(-c4ccn5c(C)nnc5c4)cc3n2CC2CC2)oc2cc(C(=O)N3C[C@H](N)C[C@@H](F)C3)ccc12 [Example 197, ((3R,5R)-3-Amino-5-fluoropiperidin-1-yl)(2-(1-(cyclopropylmethyl)-6-(3-methyl-[1,2,4]triazolo[4,3-a]pyridin-7-yl)-1H-indol-2-yl)-3-methylbenzofuran-6-yl)methanone]",317
